The assay has as its system ovalbumin-induced bronchoconstriction. Briefly: inhibition of antigen (ovalbumin)-induced bronchoconstriction in anesthetized guinea pigs. In kind it is in vivo. Conditions: orally administered 4 hours before induction; guinea pig; 240 min. The protocol:
The compounds of the invention are tested to measure their in vivo ability to inhibit the bronchoconstriction induced in anesthetized guinea pigs by exogenously administered antigen.
Male Hartley guinea pigs (400-700 gm) are sensitized three weeks prior to antigen (ovalbumin-OA) challenge as follows: each guinea pig is given two intramuscular injections--0.35 ml of Grade V OA, 50 mg/ml, into each hindlimb.
Guinea pigs, fasted overnight but allowed water adlibitum, are anesthetized with 1.2 g/kg of urethane (intraperitoneal). Supplemental does of […] of urethane are administered intraperitoneally as needed. One carotid artery and one jugular vein are cannulated to allow for the monitoring of blood pressure and the administration of drugs, respectively. A duodenal cannula is inserted for intraduodenal dosing studies. The trachea of each animal is cannulated and connected to a Harvard respirator. […] Respiratory overflow pressure is measured from a side arm off the tracheal cannula which is connected via a Gould or Beckman pressure transducer to a suitable strip chart recorder. […]
Test compounds are administered intravenously, perorally, or intraduodenally at appropriate times prior to OA challenge. […] Control experiments are used to determine the effects of solvents on the measured parameters, and test data is corrected for any significant solvent effects.
Bronchoconstriction is assessed as increases in respiratory overflow pressure (cm H2 O). Changes in blood pressure (mm Hg) are also recorded.
Test compound-induced changes in the respiratory overflow pressure are assessed as percent changes from control experiments. […] The net change in overflow pressure is measured 5 minutes after antigen challenge and is calculated as follows. […] The percent change value for the drug treated group versus the control group is calculated as follows: […]

Where a name gives a salt, the structure may show the parent alone.

On to `C[C@H](C(=O)O)c1ccc2cc(OCc3ccc4ccccc4n3)ccc2c1` [Example 17, S-(α)-α-Methyl-6-(2-quinolinylmethoxy)-2-naphthaleneacetic acid, tromethanime salt], for which the “ED50 (ovalbumin-induced bronchoconstriction)” value came to 7 mg/kg.

The values above are taken from patent US5208344A, “Naphthalenepropionic acid derivatives as anti-inflammatory/antiallergic agents” (American Home Products Corporation, priority 1991, dated 1993).
